Here are results for three molecules from patent publication US20060142336A1, “N-sulfonylpiperidines as metalloproteinase inhibitors (tace)” (priority 2002, published 2006).

Series [1] concerns the target T1, proTNFα convertase enzyme (TACE) (Homo sapiens, UniProt P78536).
T1 construct: a partially purified, isolated enzyme assay, the enzyme being obtained from the membranes of THP-1; endogenous in cells; host or cells: THP-1 cell membranes (partially purified)
Description: partially purified isolated enzyme assay for proTNFα convertase (TACE) inhibition. The series is classed as biochemical. The note with it: 10 μM of compound; enzyme from membranes of THP-1. On the procedure: Recombinant human proMMP13 may be expressed and purified as described by Knauper et al. [V. Knauper et al., (1996) […] 271:1544-1550 (1996)]. […] Activity is determined by measuring the fluorescence at λex 328 nm and λem 393 nm. Percent inhibition is calculated as follows: % Inhibition is equal to the [Fluorescenceplus inhibitor−Fluorescencebackground] divided by the [Fluorescenceminus inhibitor−Fluorescencebackground].
The ability of the compounds to inhibit proTNFα convertase enzyme (TACE) may be assessed using a partially purified, isolated enzyme assay, the enzyme being obtained from the membranes of THP-1 as described by K. M. Mohler et al., (1994) Nature 370:218-220. The purified enzyme activity and inhibition thereof is determined by incubating the partially purified enzyme in the presence or absence of test compounds using the substrate 4′,5′-Dimethoxy-fluoresceinyl Ser.Pro.Leu.Ala.Gln.Ala.Val.Arg.Ser.Ser.Ser.Arg.Cys(4-(3-succinimid-1-yl)-fluorescein)-NH2 in assay buffer (50 mM Tris HCl, pH 7.4 containing 0.1% (w/v) Triton X-100 and 2 mM CaCl2), at 26° C. for 4 hours. The amount of inhibition is determined as for MMP13 except λex 485 nm and λem 538 nm were used. […]

T1 sequence (P78536 215-824): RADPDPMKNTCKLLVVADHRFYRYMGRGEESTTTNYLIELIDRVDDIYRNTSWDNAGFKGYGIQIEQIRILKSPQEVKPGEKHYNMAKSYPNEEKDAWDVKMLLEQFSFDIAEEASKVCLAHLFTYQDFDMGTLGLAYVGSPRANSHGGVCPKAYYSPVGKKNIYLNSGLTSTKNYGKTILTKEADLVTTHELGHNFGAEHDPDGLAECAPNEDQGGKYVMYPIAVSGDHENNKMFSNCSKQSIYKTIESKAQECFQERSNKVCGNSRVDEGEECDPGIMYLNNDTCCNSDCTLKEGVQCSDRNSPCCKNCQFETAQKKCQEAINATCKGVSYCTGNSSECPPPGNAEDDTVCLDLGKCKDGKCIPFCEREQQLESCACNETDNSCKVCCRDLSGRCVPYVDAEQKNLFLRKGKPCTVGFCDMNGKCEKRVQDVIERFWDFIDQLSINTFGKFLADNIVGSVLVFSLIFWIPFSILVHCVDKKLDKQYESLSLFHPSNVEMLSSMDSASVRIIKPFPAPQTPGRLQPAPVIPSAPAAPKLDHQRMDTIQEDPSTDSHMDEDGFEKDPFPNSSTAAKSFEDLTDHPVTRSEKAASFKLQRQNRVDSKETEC

The melting point is the temperature, or range, at which the solid turns liquid. For the molecule `Cc1cc(COC2CCN(S(=O)(=O)CC(C)C(=O)NO)CC2)c2ccccc2n1` (racemic) [Example 12, (R/S)-2-Methyl-3-({4-[(2-methylquinolin-4-yl)methoxy]piperidin-1-yl}sulphonyl)propionic hydroxamic acid], the melting point was found to be 184.7 °C. In general, inhibition refers to the percentage by which the read-out fell short of the control. Consider `O=CN(O)C(CS(=O)(=O)N1CCC(OCc2cccc(F)c2)CC1)c1ccccc1` (racemic) [compound 25, (R/S)-2-({4-[(3-fluorobenzyl)oxy]piperidin-1-yl}sulphonyl)-1-phenylethyl(hydroxy)formamide], for which testing at 10 µM in series [1] gave an inhibition of 97%. In series [1], `Cc1ccc(COC2CCN(S(=O)(=O)CC(c3cccnc3)N(O)C=O)CC2)cc1C` (racemic) [compound 42, (R/S)-2-({4-[(3,4-dimethylbenzyl)oxy]piperidin-1-yl}sulphonyl)-1-pyridin-3-ylethyl(hydroxy)formamide] gave an inhibition at 10 µM of 99%.
